# From US8889398B2, “Composition for inactivating an enveloped virus” (Viroblock SA, priority 2006, dated 2014)
# “Also recorded” adds a separate entry of the source.
# Assays:
# cellular integrity = conditions: 50-100 mM, range of concentrations used in most in vitro experiments; cited from earlier work
# [1] = tested on: rSeV-Luc (recombinant Sendai virus); experiment: Inactivation assay with or without cyclodextrin, rSeV-Luc, luciferase activity in MK2 cells; format: cell-based
# Protocol: MK2 (monkey) cells were grown at 37° C. in DMEM containing 5% of bovine serum albumin (BSA) until they reached 70% of confluence.
# A recombinant Sendai virus was used, rSeV-Luc, which encodes the Photinus pyralis luciferase gene.
# The nPLV preparations were diluted in PBS to the indicated concentrations. The diluted nPLVs were then mixed with the viruses, either alone (no cyclodextrin) or in combination with 0.5 mM (final concentration) of cyclodextrin, in a volume of 100 μl. The virus-nPLV mixtures were incubated at room temperature for 20 minutes with shaking. About 10^5 viral particles were used.
# Following incubation, the mixtures were diluted to […] in DMEM without BSA and directly added onto cells. Infections were performed at 33° C. for one hour, and then infectious mixes were removed. Cells were washed once with DMEM without BSA, 10 ml of DMEM with 1% BSA were added and incubation was further performed at 37° C. for 36 hours. Experiment was done in duplicates.
# MK2 cells were lysed and luciferase activity was determined using the Promega's Luciferase Assay System. Measurements were done with TD-20/20 luminometer (Turner Designs).
smiles,measurement,setting,value
OC[C@H]1O[C@@H]2O[C@H]3[C@H](O)[C@@H](O)[C@@H](O[C@H]4[C@H](O)[C@@H](O)[C@@H](O[C@H]5[C@H](O)[C@@H](O)[C@@H](O[C@H]6[C@H](O)[C@@H](O)[C@@H](O[C@H]7[C@H](O)[C@@H](O)[C@@H](O[C@H]8[C@H](O)[C@@H](O)[C@@H](O[C@H]1[C@H](O)[C@H]2O)O[C@@H]8CO)O[C@@H]7CO)O[C@@H]6CO)O[C@@H]5CO)O[C@@H]4CO)O[C@@H]3CO [β-cyclodextrin],effect on cellular integrity,cellular integrity,detrimental for cellular integrity and can induce cell death
same,effect of β-cyclodextrin on the viral inactivation by nPLVs,"[1]; 0.5 mM β-cyclodextrin with nPLVs composed of PCE with 0.1% mol of oleic acid (OA), nPLVs 0.02%, 0.05% and 0.1%, FIG. 2A",greatly enhances the viral inactivation; also recorded: strong synergistic effect
same,concentration at which a direct effect of β-cyclodextrin alone on the viral particles is observed,"[1]; in absence of nPLVs, FIG. 2B",higher than 5 mM
